Test results: patent US20110039762A1, “TARGETED ANTIMICROBIAL MOIETIES” (C3 JIAN, INC., priority 2009, published 2011)
Entries after “also recorded” stand apart in the source; their conditions may differ.

test system: microorganisms (e.g., bacteria, yeasts, fungi); assay: Targeting peptide binding to target microorganisms (Table 3); conditions: microorganism the targeting peptide binds; binding in aqueous buffers varied by peptide solubility, preferably 1x PBS

Substance	Target(s)
1T-114 (RQAPGPGLVTITAACSAPGSRSR; Peptide with targeting and/or antimicrobial activity) [Peptide 1T-114]	A. naeslundii; also recorded: P. gingivalis; also recorded: S. epidermidis; also recorded: S. gordonii; also recorded: S. mitis; also recorded: S. mutans; also recorded: S. oralis; also recorded: S. sanguinis
1T-117 (GPGVVGPAPFSRLPAHALNL; Peptide with targeting and/or antimicrobial activity) [Peptide 1T-117]	S. mutans
1T-119 (SPATQKAPTRAQPSRAPVQDCGDGRPTAAPDDVERLSPR; Peptide with targeting and/or antimicrobial activity) [Peptide 1T-119]	S. gordonii; also recorded: S. mitis; also recorded: S. mutans; also recorded: S. oralis
1T-121 (FAKETGFGIGGAQEGWWIIADIYGPNPF; Peptide with targeting and/or antimicrobial activity) [Peptide 1T-121]	S. gordonii; also recorded: S. mitis; also recorded: S. mutans; also recorded: S. oralis; also recorded: S. salivarious; also recorded: S. sanguinis
1T-122 (GAIPDPVTHRVDWEEDHQTRPSR; Peptide with targeting and/or antimicrobial activity) [Peptide 1T-122]	S. mitis
1T-123 (LVRRNAVAGRSDGLAGAEQLDLVRLQGVL; Peptide with targeting and/or antimicrobial activity) [Peptide 1T-123]	S. gordonii
1T-124 (LFDERNKIA; Peptide with targeting and/or antimicrobial activity) [Peptide 1T-124]	S. mitis; also recorded: S. mutans; also recorded: S. oralis
1T-125 (DAITGGNPPLSDTDGLRP; Peptide with targeting and/or antimicrobial activity) [Peptide 1T-125]	S. epidermidis; also recorded: S. gordonii; also recorded: S. mutans; also recorded: S. oralis
1T-126 (QGLARPVLRRIPL; Peptide with targeting and/or antimicrobial activity) [Peptide 1T-126]	S. gordonii; also recorded: S. mitis; also recorded: S. mutans
1T-139 (AVAGAAVGALLGNDARSTAVGAAIGGALGAGAGELTKNK; Peptide with targeting and/or antimicrobial activity) [Peptide 1T-139]	A. naeslundii; also recorded: S. gordonii; also recorded: S. mitis; also recorded: S. mutans; also recorded: S. oralis
1T-141 (KKFIILLFILVQGLIFSATKTLSDIIAL; Peptide with targeting and/or antimicrobial activity) [Peptide 1T-141]	F. nucleatum; also recorded: P. gingivalis; also recorded: S. epidermidis; also recorded: S. gordonii; also recorded: S. mitis; also recorded: S. mutans; also recorded: S. oralis; also recorded: S. sanguinis
1T-145 (VEAGKRNISLENIEKISKGLGISISELFKYIEEGEDKIG; Peptide with targeting and/or antimicrobial activity) [Peptide 1T-145]	S. mitis; also recorded: S. mutans; also recorded: S. oralis
1T-154 (YFSFLEIVGMARR; Peptide with targeting and/or antimicrobial activity) [Peptide 1T-154]	P. gingivalis
1T-159 (IFSLHHFALICSEMGTFAVSKRAKYKWEVL; Peptide with targeting and/or antimicrobial activity) [Peptide 1T-159]	P. gingivalis
1T-170 (AYGKVFSMDIMLSENDKLIVLRISHHSAWH; Peptide with targeting and/or antimicrobial activity) [Peptide 1T-170]	P. gingivalis
1T-177 (GTNVPTQILGYSREERFDYEPAPEQR; Peptide with targeting and/or antimicrobial activity) [Peptide 1T-177]	P. gingivalis; also recorded: S. gordonii; also recorded: S. mitis; also recorded: S. mutans; also recorded: S. oralis; also recorded: S. salivarious; also recorded: S. sanguinis
1T-188 (HRKDVYKK; Peptide with targeting and/or antimicrobial activity) [Peptide 1T-188]	S. sanguinis
1T-192 (ILVLLALQVELDSKFQY; Peptide with targeting and/or antimicrobial activity) [Peptide 1T-192]	S. sanguinis
1T-193 (LMIFDKHANLKYKYGNRSFGVEAIM; Peptide with targeting and/or antimicrobial activity) [Peptide 1T-193]	S. sanguinis
1T-195 (AASGFTYCASNGVWHPY; Peptide with targeting and/or antimicrobial activity) [Peptide 1T-195]	S. mutans
1T-196 (KPEKEKLDTNTLMKVVNKALSLFDRLLIKFGA; Peptide with targeting and/or antimicrobial activity) [Peptide 1T-196]	F. nucleatum; also recorded: S. sanguinis

Substance	Target(s)
1T-198 (MPVSKKRYMLSSAYATALGICYGQVATDEKESEITAIPDLLDYLSVEEYLL; Peptide with targeting and/or antimicrobial activity) [Peptide 1T-198]	P. gingivalis; also recorded: S. epidermidis; also recorded: S. gordonii; also recorded: S. mitis; also recorded: S. mutans; also recorded: S. oralis; also recorded: S. sanguinis
1T-199 (RAGRIKKLSQKEAEPFEN; Peptide with targeting and/or antimicrobial activity) [Peptide 1T-199]	S. sanguinis
1T-201 (KRKHENVIVAEEMRVIKN; Peptide with targeting and/or antimicrobial activity) [Peptide 1T-201]	S. sanguinis
1T-207 (SPLEKYGTGSMTALTFLLGCCLLVLSKKSR; Peptide with targeting and/or antimicrobial activity) [Peptide 1T-207]	F. nucleatum; also recorded: S. sanguinis
1T-215 (VCFKDISVFLSPFRGQEVLFCGKAKHSLIYVIGT; Peptide with targeting and/or antimicrobial activity) [Peptide 1T-215]	S. sanguinis
1T-216 (FFLNVIAIRIPHF; Peptide with targeting and/or antimicrobial activity) [Peptide 1T-216]	S. sanguinis
1T-217 (MLSNVLSRSVVSPNVDIPNSMVILSPLLISISNYH; Peptide with targeting and/or antimicrobial activity) [Peptide 1T-217]	F. nucleatum; also recorded: S. sanguinis
1T-218 (KLIFAALGLVFLLIGLRDSRSK; Peptide with targeting and/or antimicrobial activity) [Peptide 1T-218]	F. nucleatum; also recorded: S. sanguinis
1T-219 (RNINVSATFITEKSLV; Peptide with targeting and/or antimicrobial activity) [Peptide 1T-219]	S. sanguinis
1T-222 (RIEASLISAIMFSMFNAIVKFLQK; Peptide with targeting and/or antimicrobial activity) [Peptide 1T-222]	F. nucleatum; also recorded: S. sanguinis
1T-237 (EDPVPNHFTLRRNKKEKPSKS; Peptide with targeting and/or antimicrobial activity) [Peptide 1T-237]	S. sanguinis
1T-239 (ADDLLNKRLTDLIMENAETVKTIDLDNSD; Peptide with targeting and/or antimicrobial activity) [Peptide 1T-239]	A. naeslundii; also recorded: S. gordonii; also recorded: S. mitis; also recorded: S. mutans; also recorded: S. oralis; also recorded: S. sanguinis
1T-242 (KQVQNTTLIICGTVLLGILFKSYLKSQKSV; Peptide with targeting and/or antimicrobial activity) [Peptide 1T-242]	F. nucleatum; also recorded: S. sanguinis
1T-248 (IGGALNSCG; Peptide with targeting and/or antimicrobial activity) [Peptide 1T-248]	S. sanguinis
1T-249 (VFSVLKHTTWPTRKQSWHDFISILEYSAFFALVIFIFDKLLTLGLAELLKRF; Peptide with targeting and/or antimicrobial activity) [Peptide 1T-249]	F. nucleatum; also recorded: S. sanguinis
1T-250 (LVQGDTILIENHVGTPVKDDGKDCLIIREADVLAVVND; Peptide with targeting and/or antimicrobial activity) [Peptide 1T-250]	S. mitis; also recorded: S. mutans; also recorded: S. oralis
1T-252 (MKKNLKRFYALVLGFIIGCLFVSILIFIGY; Peptide with targeting and/or antimicrobial activity) [Peptide 1T-252]	F. nucleatum; also recorded: S. sanguinis
1T-256 (KGKSLMPLLKQINQWGKLYL; Peptide with targeting and/or antimicrobial activity) [Peptide 1T-256]	S. sanguinis
1T-258 (TINIDDKVLDYLKKINSKAITIDLIGCAS; Peptide with targeting and/or antimicrobial activity) [Peptide 1T-258]	A. naeslundii; also recorded: F. nucleatum; also recorded: P. gingivalis; also recorded: T. denticola; also recorded: S. mitis; also recorded: S. mutans; also recorded: S. oralis
1T-259 (EKLKKILLKLAVCGKAWYTL; Peptide with targeting and/or antimicrobial activity) [Peptide 1T-259]	F. nucleatum; also recorded: P. gingivalis; also recorded: T. denticola; also recorded: S. mitis; also recorded: S. mutans; also recorded: S. oralis; also recorded: S. sanguinis
1T-260 (NILYFIHDENQWEPQKAEIFRGSIKHCAWLSS; Peptide with targeting and/or antimicrobial activity) [Peptide 1T-260]	A. naeslundii; also recorded: P. gingivalis; also recorded: S. epidermidis; also recorded: S. gordonii; also recorded: S. mitis; also recorded: S. mutans; also recorded: S. oralis; also recorded: S. sanguinis
